Measured values taken from patent US9957253B2, “Triaminopyrimidine compounds useful for preventing or treating malaria” (MMV MEDICINES FOR MALARIA VENTURE, priority 2014, dated 2018).
pIC50: −log10 of the molar value. Structures can show the parent of a compound that is named as a salt. Where two headings read alike, the source gives them in different places.

Key:
[1] = tested on: chloroquine-resistant K1 strain of P. falciparum; assay: In vitro antiplasmodial activity (SYBR I), K1 strain; type: cell-based, Plasmodium falciparum; conditions: Plasmodium falciparum
Experimental: Measuring In Vitro Antiplasmodial Activity
The test samples were tested in duplicate on two separate occasions against chloroquine sensitive NF54 (MRA-1000, MR4, ATCC, Manassas, Va.) and chloroquine-resistant K1 strains of P. falciparum. A modified method of Trager and Jensen was employed to maintain continuous in vitro cultures of asexual blood stages of P. falciparum (Trageret al., 1976, Science, 193, 673-675). Quantitative assessment of antiplasmodial activity in vitro was determined using the SYBR I method as described earlier (Johnson et al., 2007, Antimicrob. Agents Chemother., 51, 1926-1933).
The percent inhibition with respect to the drug-free control was plotted against the logarithm of drug concentration. The growth inhibition curves were fitted by nonlinear regression using the sigmoidal dose-response (variable slope) formula to yield the concentration-response curves. […] Chloroquine diphosphate (CQ) (Sigma), artesunate (Sigma), and pyrimethamine were used as reference drugs in all experiments.

[2] = tested on: Plasmodium berghei; assay: In vivo efficacy in the mouse malaria model (four day suppressive test); conditions: P. berghei infected mice, growth of parasites in blood
Experimental: In Vivo Efficacy in the Mouse Malaria Model In vivo efficacy against blood stages was measured in mice infected with Plasmodium berghei after four (once daily) days of dosing by oral route. Detailed protocol for this four day suppressive test is described in Fidock et al 2004, Nature Reviews Drug Discovery (3), p 509.

[3] = Blood:Plasma (BP) ratio, rat; type: in vitro ADME
[4] = Plasma protein binding assay (equilibrium dialysis), rat; type: in vitro ADME
Experimental: (§1) Plasma Protein Binding Assay
(§2) Protein binding is measured using the equilibrium dialysis technique. Compound is added to 10% plasma giving a concentration of 20 μM and dialysed with isotonic buffer for 18 hours at 37° C. The plasma and buffer solutions are analysed using generic LCUVMS and the first apparent binding constant for the compound derived. The binding constant is then used to determine the % free in 100% plasma.

[5] = Plasma protein binding assay (equilibrium dialysis), human; type: in vitro ADME
Experimental: as §1, §2

[6] = Prediction of hepatic blood clearance (well stirred model), rat
[7] = biological target: T1, CYP3A4 (Homo sapiens, UniProt P08684); assay: CYP inhibition assay, CYP 3A4; type: in vitro ADME; conditions: probe midazolam; human liver microsomes, substrate cocktail
Experimental: (§3) This study was conducted using specific substrates for 5 major human CYP isozymes. These substrates were used as a cocktail (phenacetin, diclofenac, S-mephenytoin, bufuralol and midazolam which are predominantly metabolised by CYP 1A2, 2C9, 2C19, 2D6 and 3A4/5, respectively) at concentrations equivalent to their respective Km values. LC-MS-MS (MRM mode) was used to follow the formation of the CYP specific metabolites. A decrease in the formation of the metabolites in peak area to vehicle control was used to calculate the IC50 value. […] Test compound was used at 6 different concentrations ([…]) to estimate IC50.
(§4) The incubation was carried out in 96 deep well plates. Mixture of 180 μL of 20 mg/mL HLM and 90 μL of substrate cocktail solution was added to 15840 μL of phosphate buffer and 179 μL of this mixture was mixed with 1 μL of the test compound, inhibitor cocktail solution or vehicle in each well. The final concentration of DMSO:ACN in the assay mix was 0.3:0.7% v/v. The incubation plate was placed into the water bath and pre-warmed at 37° C. for 5 min before the reactions were started by the addition of 20 μL of 10 mmol/L NADPH solution in phosphate buffer. After the addition of NADPH, the incubation plate was incubated at 37° C. for a further 5 min. The reaction was quenched by the addition of 1 volume (200 μL) of cold ACN containing 3% formic acid and 40 nmol/L verapamil. The plates were kept on ice for 20 min and then centrifuged at 4000 rpm for 30 min to precipitate protein. The supernatant 180 μL was transferred to the analysis plate for LC/MS/MS analysis.
Target sequence in this assay (P08684 2-503): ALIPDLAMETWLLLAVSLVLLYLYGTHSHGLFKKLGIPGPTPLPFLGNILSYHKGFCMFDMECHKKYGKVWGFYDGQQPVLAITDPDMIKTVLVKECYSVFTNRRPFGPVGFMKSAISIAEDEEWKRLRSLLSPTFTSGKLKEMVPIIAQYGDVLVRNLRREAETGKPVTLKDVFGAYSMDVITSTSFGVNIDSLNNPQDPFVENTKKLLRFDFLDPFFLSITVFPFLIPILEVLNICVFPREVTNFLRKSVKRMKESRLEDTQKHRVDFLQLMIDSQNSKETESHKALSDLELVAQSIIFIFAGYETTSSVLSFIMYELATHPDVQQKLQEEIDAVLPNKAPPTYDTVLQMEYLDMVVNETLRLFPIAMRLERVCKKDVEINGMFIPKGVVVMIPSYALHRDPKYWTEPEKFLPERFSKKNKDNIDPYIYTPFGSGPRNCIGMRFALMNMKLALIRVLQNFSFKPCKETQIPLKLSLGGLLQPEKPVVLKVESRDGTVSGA

[8] = biological target: T2, human CYP 2D6 (Homo sapiens, UniProt P10635); assay: CYP inhibition assay, CYP 2D6; type: in vitro ADME
T2 construct: Mixture of 180 μL of 20 mg/mL HLM and 90 μL of substrate cocktail solution; from tissue; host or cells: human liver microsomes (HLM)
T2 sequence (P10635 whole entry): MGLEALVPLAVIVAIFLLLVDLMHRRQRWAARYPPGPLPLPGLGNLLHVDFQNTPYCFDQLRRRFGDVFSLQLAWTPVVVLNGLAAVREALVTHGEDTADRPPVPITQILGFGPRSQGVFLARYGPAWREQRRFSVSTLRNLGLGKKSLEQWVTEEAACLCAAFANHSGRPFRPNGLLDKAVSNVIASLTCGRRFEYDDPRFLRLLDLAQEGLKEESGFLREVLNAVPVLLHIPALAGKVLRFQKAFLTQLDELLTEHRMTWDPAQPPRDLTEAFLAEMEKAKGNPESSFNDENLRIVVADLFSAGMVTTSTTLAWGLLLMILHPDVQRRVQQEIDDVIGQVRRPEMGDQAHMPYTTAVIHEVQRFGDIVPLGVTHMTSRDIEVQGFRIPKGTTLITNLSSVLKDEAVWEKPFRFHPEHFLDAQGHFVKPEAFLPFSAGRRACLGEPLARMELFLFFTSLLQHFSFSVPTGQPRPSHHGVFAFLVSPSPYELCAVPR
Experimental: as §3, §4

[9] = biological target: human CYP 2C9 (Homo sapiens, UniProt P11712); assay: CYP inhibition assay, CYP 2C9; type: in vitro ADME
Chain of human CYP 2C9 (P11712 whole entry): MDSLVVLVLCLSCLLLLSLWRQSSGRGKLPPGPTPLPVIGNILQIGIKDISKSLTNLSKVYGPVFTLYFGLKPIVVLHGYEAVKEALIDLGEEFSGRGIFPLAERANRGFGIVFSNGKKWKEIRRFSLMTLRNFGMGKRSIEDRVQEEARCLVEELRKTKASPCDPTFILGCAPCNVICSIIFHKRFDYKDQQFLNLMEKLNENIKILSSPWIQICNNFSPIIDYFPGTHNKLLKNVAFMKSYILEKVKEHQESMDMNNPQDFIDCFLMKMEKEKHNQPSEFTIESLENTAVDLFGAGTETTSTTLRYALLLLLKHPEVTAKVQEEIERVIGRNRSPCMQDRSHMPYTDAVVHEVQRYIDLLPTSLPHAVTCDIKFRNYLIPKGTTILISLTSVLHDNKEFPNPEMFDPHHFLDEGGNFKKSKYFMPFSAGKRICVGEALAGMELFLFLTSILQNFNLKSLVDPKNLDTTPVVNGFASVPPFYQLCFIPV
Experimental: as §3, §4

[10] = biological target: T3, human CYP 2C19 (Homo sapiens, UniProt P33261); assay: CYP inhibition assay, CYP 2C19; type: in vitro ADME
T3 construct: Mixture of 180 μL of 20 mg/mL HLM and 90 μL of substrate cocktail solution; from tissue; host or cells: human liver microsomes (HLM)
T3 sequence (P33261 whole entry): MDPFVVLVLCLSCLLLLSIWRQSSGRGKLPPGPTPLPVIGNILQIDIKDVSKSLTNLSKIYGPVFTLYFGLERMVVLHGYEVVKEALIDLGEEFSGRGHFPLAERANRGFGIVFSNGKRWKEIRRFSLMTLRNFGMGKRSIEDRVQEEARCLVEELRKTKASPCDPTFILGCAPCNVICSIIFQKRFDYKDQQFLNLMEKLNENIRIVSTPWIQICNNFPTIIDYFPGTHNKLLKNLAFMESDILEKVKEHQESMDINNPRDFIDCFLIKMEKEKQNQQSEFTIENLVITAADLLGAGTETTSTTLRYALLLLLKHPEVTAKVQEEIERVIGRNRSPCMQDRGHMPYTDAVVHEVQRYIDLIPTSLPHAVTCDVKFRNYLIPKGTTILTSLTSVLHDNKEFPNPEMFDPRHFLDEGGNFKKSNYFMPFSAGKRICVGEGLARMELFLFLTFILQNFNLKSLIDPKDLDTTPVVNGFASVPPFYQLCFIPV
Experimental: as §3, §4

[11] = biological target: T1, CYP3A4; assay: Time dependent CYP inhibition assay, CYP 3A4; type: in vitro ADME
Target sequence in this assay (P08684 whole entry): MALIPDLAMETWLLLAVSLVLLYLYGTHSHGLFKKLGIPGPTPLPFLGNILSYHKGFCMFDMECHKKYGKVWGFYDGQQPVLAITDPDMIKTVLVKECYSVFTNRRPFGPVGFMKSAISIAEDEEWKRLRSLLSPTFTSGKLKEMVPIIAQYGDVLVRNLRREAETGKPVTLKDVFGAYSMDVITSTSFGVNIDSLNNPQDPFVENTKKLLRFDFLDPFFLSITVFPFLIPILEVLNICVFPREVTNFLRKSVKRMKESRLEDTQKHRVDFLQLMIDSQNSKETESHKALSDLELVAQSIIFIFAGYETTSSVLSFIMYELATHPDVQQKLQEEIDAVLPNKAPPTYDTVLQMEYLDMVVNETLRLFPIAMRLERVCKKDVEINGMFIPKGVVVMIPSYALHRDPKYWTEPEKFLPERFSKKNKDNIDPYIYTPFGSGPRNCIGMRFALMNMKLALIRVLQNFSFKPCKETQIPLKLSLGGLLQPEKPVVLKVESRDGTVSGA

[12] = biological target: T3, human CYP 2C19; assay: Time dependent CYP inhibition assay, CYP 2C19; type: in vitro ADME
[13] = Caco-2 permeability assay; type: in vitro ADME; conditions: human; Caco-2, 10 μM, pH 6.5/7.4
Experimental: Caco-2 Permeability Assay
Permeability in a Caco-2 monolayer was determined at 10 μM. The Caco-2 cell monolayers were washed once with HBSS. TEER was measured both before and after performing all the transport experiments. Papp was measured in apical A to basolateral B direction. Transport buffer, 800 μL (HBSS, pH 7.4) was first dispensed to the basal side of the monolayer. The assay was then initiated by adding 200 μL of compound solution to the apical side (all test compounds were diluted in HBSS, pH 6.5, with 1% DMSO as co-solvent). Two μL and 200 μL of samples were withdrawn, before and at 45 and 120 min post addition of test compound, from the apical donor compartment and the basolateral receiver compartment, respectively. The transwell plates were incubated at 37° C. on a shaker at 480 rpm inside the incubator. All samples were immediately analysed by LC-MS/MS. A passive permeability was determined by complete chemical inhibition of the three major efflux transporters, ABCB1 (P-gp), ABCG2 (BCRP) and ABCC2 (MRP2), in Caco-2 cells using a cocktail of chemical inhibitors: quinidine (P-gp), sulfasalazine (BCRP) and benzbromarone (MRP2).
The apparent permeability coefficient (Papp) was calculated according to the following equation: Papp=(ΔQ/Δt)/(A×CD)[cm/s] (1) where (ΔQ/Δt) […] is the cumulative amount of test compound transported over time to the basolateral (receiver) side, A is the surface area of the monolayer membrane (cm^2) and CD is the average drug concentration in the donor chamber over the period for which (ΔQ/Δt) was determined.

[14] = 3 mg/kg oral once daily for four days
[15] = 10 mg/kg oral once daily for four days
[16] = 30 mg/kg oral once daily for four days
[17] = K1 strain, chloroquine-resistant, read-out: Pf IC50—K1
[18] = human liver microsomes, substrate cocktail, read-out: IC50 CYP 2D6
[19] = human liver microsomes, substrate cocktail, read-out: IC50 CYP 2C9
[20] = human liver microsomes, substrate cocktail, read-out: IC50 CYP 2C19

Row | Compound | pIC50 ([1]; K1, read-out: Pf IC50—K1) | % Inhibition [2, 14] [%] | % Inhibition [2, 15] [%] | % Inhibition [2, 16] [%] | BP ratio [3] | Fup [4] | Fup [5] | Predicted CLh blood [6] [mL/min/kg] | IC50 at 5 min [7] [µM] | pIC50 [8] | pIC50 [9] | pIC50 [10] | pIC50 [11] | pIC50 [12] | Papp A→B at 120 min, 10 μM [13] [×10⁻⁶ cm/s] | pIC50 [1, 17] | % Inhibition ([2]; 15 mg/kg oral once daily for four days) [%] | pIC50 [8, 18] | pIC50 [9, 19] | pIC50 [10, 20]
1 | CCc1cc(Nc2ncc(N3CCN[C@H](C)C3)c(Nc3cc(C)n(C)n3)n2)nc(C)c1F [Example 7, (R)—N4-(1,5-dimethyl-1H-pyrazol-3-yl)-N2-(4-ethyl-5-fluoro-6-methylpyridin-2-yl)-5-(3-methylpiperazin-1-yl)pyrimidine-2,4-diamine dihydrochloride] | 7.35 | 6 | 28 | 100 | 2.2 | 0.06 | 0.03 | 24.20 | > 30 | < 4.52 | < 4.52 | < 4.52 | < 4.25 | < 4.25 | 5 |  |  |  |  | 
2 | Cc1nc(Nc2ncc(N3CCN[C@H](C)C3)c(Nc3cnn(C)n3)n2)cc(C2CC2)c1Cl [Example 10, (R)—N2-(5-chloro-4-cyclopropyl-6-methylpyridin-2-yl)-N4-(2-methyl-2H-1,2,3-triazol-4-yl)-5-(3-methylpiperazin-1-yl)pyrimidine-2,4-diamine dihydochloride] |  |  | 60 | 100 | 1.7 | 0.04 | 0.04 | 16.10 | > 30 |  |  |  | < 4.25 | < 4.25 | 3.8 | 7.72 | 75 | < 4.52 | < 4.52 | < 4.52
3 | Cc1nc(Nc2ncc(N3CCN(C)[C@H](C)C3)c(Nc3cc(C)n(C)n3)n2)cc(C2CC2)c1F [Example 13, (R)—N2-(4-cyclopropyl-5-fluoro-6-methylpyridin-2-yl)-N4-(1,5-dimethyl-1H-pyrazol-3-yl)-5-(3,4-dimethylpiperazin-1-yl)pyrimidine-2,4-diamine] |  | 0 | 42 | 100 | 1.06 | 0.04 | 0.03 | 18.80 | > 30 |  |  |  | < 4.25 | < 4.25 | 19.5 | 7.82 |  | < 4.52 | < 4.52 | < 4.52
